The target in experiment [1] is T1, NTCP (Na+ taurocholate cotransporting peptide), HepG2-hNTCP-C4 cell line (Homo sapiens, UniProt Q14973).
T1 construct: expressed in transfected cells; host or cells: HepG2-hNTCP-C4 (HepG2 cells expressing human NTCP)
T1 sequence (Q14973 1-349): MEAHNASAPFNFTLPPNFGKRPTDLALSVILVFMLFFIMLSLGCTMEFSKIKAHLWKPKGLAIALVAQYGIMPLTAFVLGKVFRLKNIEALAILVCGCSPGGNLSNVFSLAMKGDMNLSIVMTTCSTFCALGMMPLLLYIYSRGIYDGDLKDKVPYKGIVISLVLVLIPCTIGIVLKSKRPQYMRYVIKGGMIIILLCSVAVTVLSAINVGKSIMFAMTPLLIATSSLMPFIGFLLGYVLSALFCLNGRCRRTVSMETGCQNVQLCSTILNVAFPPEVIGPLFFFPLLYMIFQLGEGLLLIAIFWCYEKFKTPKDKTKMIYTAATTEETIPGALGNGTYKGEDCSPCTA
Kind of experiment: Inhibition of binding between FITC-labelled PreS1 and NTCP expressing cell line, flow cytometry. The following applies: for relative fluorescence intensity compared to Comparative Example 1 (LCA): compound 50 µM, 20 nM PreS1, 4° C., 2 hours, lower = more inhibited binding. Here is the method: HepG2-hNTCP-C4 cell line, a cell line expressing NTCP, was seeded in a 6 well plate at a density of 2×10^5/well and incubated at 4° C. for 30 minutes when the confluency reached 80% after overnight incubation for 2 days. Thereafter, 20 nM PreS1 (Myr-GTNL […]-Lys(FITC) (SEQ ID NO: 1)) and the compounds in Example 1, Examples 38 to 56 or the compound in Comparative Example 1 were treated by diluting in culture media at 4° C. at a concentration of 50 µM respectively, and the media was suctioned after 2 hours, followed by washing 3 times with 4° C. PBS. In order to take the cells off from the plate, 500 μl of 0.5 mM EDTA PBS solution was treated, and then incubation was performed at 37° C. for 15 minutes to check whether the cells fell off through an optical microscope. After taking off the cells by pipetting, the cells were collected in a 1.5 ml tube and centrifuged (4000 rpm, 4° C., 3 min). After suctioning the supernatant, the pellet was washed 3 times with 4° C. PBS, and then green fluorescence was measured via flow cytometry. In this case, taurocholic acid (TCA), a compound known as a substrate of NTCP to reduce the entry of HBV or HDV, was used as a positive control group.
In the graph at the top of FIG. 1, black (1) and red (2) indicate a negative control group with no treatment and an HBV-induced group (HBV preS1) solely treated with PreS1, respectively. Blue (HBV preS1+HBV entry inhibitor) (3) is the fluorescence value for each of Examples or Comparative Examples, evaluated that the closer to the negative control group, the more inhibited the binding between PreS1 and the NTCP cell line.
The experimental method was the same as in the Experimental Example 1-1, and 20 nM PreS1 and each compound were treated at 4 concentrations (0.2 μM, 2 μM, 10 μM, 50 μM).
With an expectation that there is a structure-activity relationship among compounds composed of bile acid and amino acids, for each of bile acids in Comparative Example 1 (lithocholic acid, LCA), Comparative Example 2 (ursodeoxycholic acid, UDCA), Comparative Example 3 (cholic acid, CA), Comparative Example 4 (hyodeoxycholic acid, HDCA), Comparative Example 5 (deoxycholic acid, DCA), and Comparative Example 6 (chenodeoxycholic acid, CDCA), an evaluation experiment was conducted on an ability to inhibit the binding between PreS1 and NTCP expressing cell lines, and also for Examples 1 (LCA-Ile) and Example 44 (LCA-Val) as well as the compounds in Example 2 (UDCA-Ile), Example 3 (UDCA-Val), Example 6 (CA-Ile), Example 7 (CA-Val), Example 8 (HDCA-Ile), Example 9 (HDCA-Val), Example 10 (DCA-Ile), Example 11 (DCA-Val), Example 14 (CDCA-Ile), and Example 15 (CDCA-Val) in which bile acid parts (lithocholic acid) of Example 1 (LCA-Ile) and Example 44 (LCA-Val) were substituted with other types of bile acids in Comparative Examples 2 to 6, an evaluation experiment was conducted on an ability to inhibit the binding between PreS1 and NTCP expressing cell lines. The experimental method was the same as in the Experimental Example 1-1, and 18 compounds in the Comparative Examples 1 to 6, Examples 1 to 3, Examples 6 to 11, Examples 14 to 15, and Example 44 were treated at a concentration of 50 µM along with 20 nM PreS1.
In FIG. 9, an evaluation experiment was conducted to check a degree of inhibiting the binding between PreS1 and NTCP expressing cell lines for compounds in Examples 4 to 5, Examples 12 to 13, Examples 16 to 17, and Comparative Examples 2 (ursodeoxycholic acid, UDCA), Comparative Examples 5 (deoxycholic acid, DCA), and Comparative Examples 6 (chenodeoxycholic acid, CDCA) according to the present disclosure. The experimental method was the same as the Experimental Example 1-1.
In the Experimental Examples 1-4, it was determined whether there is additionally concentration dependence for Example 4 (UDCA-Trp), a compound with good inhibitory ability. […]
For orientation: In flow cytometry, cells or beads pass a laser one at a time.

A further experiment concerns HBV virus. The experiment is described as follows: HBV infection of HepG2-NTCP cells, HBeAg ELISA analysis. The format is cell-based, hepatitis B virus (HBV). The conditions noted are these: 20 μM, O.D. 450 nm. Here is the method:
Specifically, the HepG2-NTCP cell line was cultured on a 6-well plate, incubation was performed overnight, HBV inhibitors were treated at a concentration of 20 μM, and the positive control Myrcludex-B (MyrB) was treated at a concentration of 200 nM, followed by culture for 24 hours. After HBV infection into the cells to make HBV 3000 genome equivalent per ml/cell (Geq/cell), the cell culture medium was replaced (medium changing, MC) a day after the viral infection to remove the virus unattached to cell membranes. In order to measure an amount of virus that entered the cell, medium changing (MC) was performed once more 4 days after viral infection. 2 days after replacement, HBeAg ELISA analysis was performed using a supernatant, and Southern blot analysis was performed with cell pellets.
HBeAg ELISA analysis was performed using an HBeAg ELISA kit (sanbio, Wantai HBeAg ELISA, cat #WB-2496) for the supernatant obtained by the method in Experimental Example 4-1.
First, a negative control group (Mock), positive control group (MyrB), and samples according to the present disclosure were loaded, by 50 μl each to be triplicate, onto a 96-well plate coated with capture Ab. In this case, Example 1 (LCA-ILE), Example 44 (LCA-Val), Example 52 (LCA-Tyr), Example 51 (LCA-Ser), Example 55 (LCA-Glu), Example 2 (UDCA-Ile), Example 3 (UDCA-Val), Example 25 (LCA-Val-Trp), Example 10 (DCA-Ile), Comparative Example 1 (LCA), and Comparative Example 2 (UDCA) were used as the sample.
The HRP-conjugated detection antibody was loaded into each well by 50 μl, followed by a reaction at 37° C. for 30 minutes. Washing buffer (1×PBS, 0.5% Tween20) was added by 200 μl, and washing was performed 5 times. 50 μl of chromogen solution A and 50 μl of chromogen solution B were added to each well, and a reaction was carried out in the darkness at 37° C. for 15 minutes. The stop solution was added to each well by 50 μl each to stop the reaction, and the amount of HBeAg was measured by measuring the absorbance (optical density, O.D.) level in the 450 nm wavelength band.

The text below walks through data of patent US20260234180A1, “AMINO ACID DERIVATIVE, PREPARATION METHOD THEREFOR, AND PHARMACEUTICAL COMPOSITION FOR TREATING HEPATITIS, COMPRISING SAME” (priority 2021, published 2026).

As for `C[C@H](CCC(=O)N[C@@H](CS)C(=O)O)[C@H]1CC[C@H]2[C@@H]3CC[C@@H]4C[C@H](O)CC[C@]4(C)[C@H]3CC[C@]12C` [Example 40, (R)-2-((R)-4-((3R,5R,8R,9S,10S,13R,14S,17R)-3-hydroxy-10,13-dimethyl-hexadecahydro-1H-cyclopenta[a]phenanthren-17-yl)pentanamido)-3-mercaptopropanoic acid], the “relative fluorescence intensity compared to Comparative Example 1 (LCA)” value (“relative fluorescence intensity” for short) in experiment [1] is “low and lower”.

As for `C[C@H](CCC(=O)N[C@@H](Cc1cnc[nH]1)C(=O)O)[C@H]1CC[C@H]2[C@@H]3CC[C@@H]4C[C@H](O)CC[C@]4(C)[C@H]3CC[C@]12C` [Example 43, (S)-2-((R)-4-((3R,5R,8R,9S,10S,13R,14S,17R)-3-hydroxy-10,13-dimethyl-hexadecahydro-1H-cyclopenta[a]phenanthren-17-yl)pentanamido)-3-(1H-imidazol-5-yl)propanoic acid], the “relative fluorescence intensity” value in experiment [1] is recorded as “low”.

On to `C[C@H](NC(=O)CC[C@@H](C)[C@H]1CC[C@H]2[C@@H]3CC[C@@H]4C[C@H](O)CC[C@]4(C)[C@H]3CC[C@]12C)C(=O)O` [Example 46, (S)-2-((R)-4-((3R,5R,8R,9S,10S,13R,14S,17R)-3-hydroxy-10,13-dimethyl-hexadecahydro-1H-cyclopenta[a]phenanthren-17-yl)pentanamido)-3-propanoic acid], for which, in experiment [1], the “relative fluorescence intensity” value was “low”.

As to `CC(C)C[C@H](NC(=O)CC[C@@H](C)[C@H]1CC[C@H]2[C@@H]3CC[C@@H]4C[C@H](O)CC[C@]4(C)[C@H]3CC[C@]12C)C(=O)O` [Example 47], the “relative fluorescence intensity” value in experiment [1] is “low and lower”.

In the case of `CSCC[C@H](NC(=O)CC[C@@H](C)[C@H]1CC[C@H]2[C@@H]3CC[C@@H]4C[C@H](O)CC[C@]4(C)[C@H]3CC[C@]12C)C(=O)O` [Example 48, (S)-2-((R)-4-((3R,5R,8R,9S,10S,13R,14S,17R)-3-hydroxy-10,13-dimethyl-hexadecahydro-1H-cyclopenta[a]phenanthren-17-yl)pentanamido)-4-(methylthio)butanoic acid], the “relative fluorescence intensity” value in experiment [1] is “low and lower”.

As for `C[C@H](CCC(=O)N[C@@H](Cc1ccccc1)C(=O)O)[C@H]1CC[C@H]2[C@@H]3CC[C@@H]4C[C@H](O)CC[C@]4(C)[C@H]3CC[C@]12C` [Example 49, (S)-2-((R)-4-((3R,5R,8R,9S,10S,13R,14S,17R)-3-hydroxy-10,13-dimethyl-hexadecahydro-1H-cyclopenta[a]phenanthren-17-yl)pentanamido)-3-phenylpropanoic acid], the “relative fluorescence intensity” value in experiment [1] is reported as “low”.

On to `C[C@H](CCC(=O)N[C@@H](Cc1c[nH]c2ccccc12)C(=O)O)[C@H]1CC[C@H]2[C@@H]3CC[C@@H]4C[C@H](O)CC[C@]4(C)[C@H]3CC[C@]12C` [Example 50, (S)-2-((R)-4-((3R,5R,8R,9S,10S,13R,14S,17R)-3-hydroxy-10,13-dimethyl-hexadecahydro-1H-cyclopenta[a]phenanthren-17-yl)pentanamido)-3-(1H-indol-3-yl)propanoic acid], for which the “effect of inhibiting the binding between PreS1 and NTCP expressing cell lines by treatment concentration” value in experiment [1] (0.2 μM, 2 μM, 10 μM, 50 μM, 20 nM PreS1) was “concentration dependent”. Moreover, the “relative fluorescence intensity” value in experiment [1] is “low and lower”.

Regarding `C[C@H](CCC(=O)N[C@@H](CO)C(=O)O)[C@H]1CC[C@H]2[C@@H]3CC[C@@H]4C[C@H](O)CC[C@]4(C)[C@H]3CC[C@]12C` [Example 51, (S)-3-hydroxy-2-((R)-4-((3R,5R,8R,9S,10S,13R,14S,17R)-3-hydroxy-10,13-dimethyl-hexadecahydro-1H-cyclopenta[a]phenanthren-17-yl)pentanamido)propanoic acid], the “relative fluorescence intensity” value in experiment [1] is “low”. Also, the “HBeAg absorbance level relative to the negative control group (Mock)” value in the experiment on HBV virus is “relatively lower”.

Consider `C[C@H](CCC(=O)N[C@@H](CCCCN)C(=O)O)[C@H]1CC[C@H]2[C@@H]3CC[C@@H]4C[C@H](O)CC[C@]4(C)[C@H]3CC[C@]12C` [Example 56, (S)-6-amino-2-((R)-4-((3R,5R,8R,9S,10S,13R,14S,17R)-3-hydroxy-10,13-dimethyl-hexadecahydro-1H-cyclopenta[a]phenanthren-17-yl)pentanamido)hexanoic acid], for which, in experiment [1], the “relative fluorescence intensity” value is recorded as “low”.
